US5552156A, “Liposomal and micellular stabilization of camptothecin drugs” (Ohio State University, priority 1995, dated 1996)
“Also recorded” adds a separate entry of the source.

Tests used:
[1] = Overall association constant by fluorescence anisotropy titration, DMPG liposomes; type: physicochemical; settings: for overall association constant K, DMPG: DMPG (negatively charged, fluid phase), PBS, 37° C.; for bound drug level, DMPG: DMPG liposomes, 0.29M lipid, estimated
Protocol: While the spectral changes provide qualitative evidence that the camptothecin drugs bind the liposome membranes, fluorescence anisotropy titration, offers the most sensitive means for quantitatively assessing the extent of the binding. The fluorescence anisotropy titration was performed according to the method of Burke and Tritton, Biochemistry 24: 1768-1776 (1985).
The concentrations of free camptothecin drugs and camptothecin drugs associated with liposomes were determined at various lipid concentrations. All experiments were conducted in glass tubes pretreated with a silating agent, Surfacil, from Pearce Chemical, Rockford, Ill. The titration was conducted at camptothecin drug concentration of 1×10^-6 M in PBS at 37° C. Anisotropy values at each lipid concentration were determined within less than 30 seconds following the addition of the camptothecin drugs to the liposome suspension. The (a) values were determined for fixed drug concentration, typically 2 μM, while the lipid concentration was varied from 0 to 0.29M. By varying the lipid concentration rather than varying the drug concentration, the problem of self-association phenomenon which occurs for camptothecin drugs concentrations in excess of 10 μM is avoided. Also, the well-known phenomenon known as inner filter effect which occurs using fluorescent material at high optical densities is a is avoided.
Adsorption isotherms like those shown in FIGS. 4A and 4B were used to determine overall association constants for the camptothecin drugs. Overall association constants are defined as: […]
where [AB ] represents the concentration of the camptothecin drug bound to the vesicle membrane, [AF ] represents the concentration of free drug, and [L] represents the total lipid concentration in the liposome suspension. This equation is valid when the concentration of free lipid is approximately equal to the concentration of total lipid, that is, the concentration of free lipid is in great excess over the concentration of bound drug. Provided this concentration is satisfied, K may be determined from the inverse of the slope of a double reciprocal plot according to (Burke and Tritton, Biochemistry 24:1776, 1985). In such a plot, 1/bound fraction of the total camptothecin drug is plotted vs. 1/[lipid], with a y-intercept value of 1.
The stabilization of camptothecin drugs was determined using different lipids. Three types of lipids (and thus 3 types of membranes) were examined: fluid-phase and electroneutral L-α-dimyristoylphosphatidylcholine (DMPC); fluid-phase and negatively-charged L-α-dimyristoylphosphatidylglycerol (DMPG), and solid-phase and electroneutral L-α-distearoylphosphatidylcholine (DSPC). While DMPC and DMPG have identical chain length, the charge on their head groups differ. DMPC and DSPC have identical head groups, but DMPC has acyl chains having 14 carbons per chain, which are four carbons shorter than the DSPC, which has 18 carbons per chain. This difference of 4-carbon chain length results in DMPC being fluid-phase at 37° C. while DSPC is solid-phase. The 7 camptothecin drugs listed in Table III were combined with liposomes containing the above lipids.
FIGS. 4A and 4B show the extent of camptothecin drug binding to liposomes as a function of lipid concentration for DMPC and DMPG liposomes. DMPC liposomes were made as in Example 1, at lipid concentrations from 0 to 0.29M, using CMC, 10-hydroxycamptothecin, 10,11-methylenedioxy-camptothecin, topotecan, camptothecin, and camptothecin carboxylate sodium salt, as shown in FIG. 4B. DMPG liposomes were made as in Example 2, at lipid concentrations from 0 to 0.29M, using 9-chloro-10,11-methylenedioxycamptothecin CMC, 10,11-methylenedioxycamptothecin, camptothecin, and topotecan, 9-aminocamptothecin, as shown in FIG. 4A. The lipid concentration […] of the data using double-reciprocal plots gave identical overall association/binding constants of 100M^-1.

[2] = HPLC assay of lactone ring hydrolysis, free in PBS or associated with liposomes or micelles; type: physicochemical; settings: for duration of stability when bound to liposomes / lactone hydrolysis when associated with liposomes: DMPC and DMPG liposomes; for duration of stability when bound to liposomes: 0.29M lipid; for C/L drug DMPC Lip. / t1/2 drug DMPC Lip.: DMPC liposomes; for C/L drug DMPG Lip. / t1/2 drug DMPG Lip.: DMPG liposomes; for effect of liposome lysis by sonication: 5 minutes sonication; for biologically active (lactone) form present after 48 hours: associated with DMPC or DMPG liposomes; for carboxylate/lactone ratio (C/L) free drug: final equilibrium; for t1/2 free drug: lactone hydrolysis
Protocol: A high performance liquid chromatography assay was used to determine the rate of hydrolysis of camptothecin and topotecan free in aqueous solution and to compare such rates with the rate of hydrolysis for the same drugs when bound to the DMPG and DMPC liposome membranes. The assay was conducted under near physiological conditions; the pH was 7.4, the temperature was 37° C. and the ionic strength was physiological. A Spectroflow model 980 fluorescence detector coupled to an HP 3392A integrator which acquired and processed the chromatograms, was used. For camptothecin, an Ultrasphere ODS C-18 250 mm long column was used. The mobile phase consisted of 32% acetonitrile, 67% 0.1M acetate buffer, pH 5.5, and 1% 01.M sodium dodecylsulfate at a flow rate of 1 mL/min. The detector was set to 370 nm excitation wavelength and a 418 nm long pass emission filter. A 1 μM solution of camptothecin in PBS was prepared and incubated at 37° C. Immediately after mixing the drug stock solution with PBS and at intervals of 5 min thereafter, 50 μL aliquots were taken out and mixed with 150 μL methanolic internal standard, 9-toluoylamidocamptothecin and either analyzed immediately or kept cold under dry ice. 150 μL of this mixture was diluted with 125 μL water and 200 μL was injected. The ratio of the peak areas corresponding to the intact lactone form of the camptothecin drug and the internal standard at a particular time was normalized to that at the time of mixing and was considered as the concentration of the intact lactone form.
For topotecan the excitation wavelength was 362 nm and the emission was observed through a 470 long wave pass filter. The stationary phase was Waters Nova-Pak C-18 150mm long column. The mobile phase consisted of 500 mL 0.1M KH2 PO4, 550 mL acetonitrile, 4.2 mL triethylamine (distilled over molecular sieves), 4.44 g sodium dioctylsulfosuccinate (DOSS), and 970 ml water. The pH was adjusted to 6.0 with H3 PO4. Internal standard solution contained 50×10^-9 g acridine from Eastman and 20×10^-3 M DOSS in methanol and was always kept cold at ≤-20° C. Next 150 μL or cold internal standard solution was mixed with 50 μL aliquot containing topotecan, centrifuged for 1 minute and the supernatant was either analyzed immediately or stored at -20° C. for analysis at a later time, within 2 hours. Samples were monitored at time points from 0 minutes, that is, immediately following dissolution, up to 72 hours.
The kinetics of lactone ring hydrolysis for free camptothecin, CMC and topotecan are shown in of FIGS. 7a, 7b and 7c. Analysis of the decay profile for camptothecin, CMC and topotecan free in PBS was accomplished using a nonlinear least squares program.

SMILES | overall association constant K, DMPG [1] [M⁻¹] | bound drug level, DMPG [1] [%] | duration of stability when bound to liposomes [2] | C/L drug DMPC Lip. ([2]; pH 7.4, 37° C.) | t1/2 drug DMPC Lip. ([2]; pH 7.4, 37° C.) [h] | C/L drug DMPG Lip. ([2]; pH 7.4, 37° C.) | t1/2 drug DMPG Lip. ([2]; pH 7.4, 37° C.) [h] | biologically active (lactone) form present after 48 hours [2] | carboxylate/lactone ratio (C/L) free drug ([2]; free in PBS, pH 7.4, 37° C.) | half-life (t1/2) of free drug in PBS ([2]; free in PBS, pH 7.4, 37° C.) | t1/2 free drug ([2]; free in PBS, pH 7.4, 37° C.) [min] | lactone hydrolysis when associated with liposomes [2] | other results
CCC1(O)C(=O)OCc2c1cc1n(c2=O)Cc2cc3c(Cl)c4c(cc3nc2-1)OCO4 (stereo not drawn) [9-chloro-10,11-methylenedioxycamptothecin] | 320 | 99 | at least 48 hours | ~ 0 | > 72 | ~ 0 | > 72 | more than 97% | 6.4 | approximately 21 min | 21.3 | – | effect of liposome lysis by sonication ([2]; DSPC MLVs): releases 9-chloro-10,11-methylenedioxycamptothecin which is then hydrolysed; effect of liposome lysis by sonication ([2]; DSPC MLVs, listed as CMC): at least partially released and hydrolysed; lactone ring not hydrolysed in pH 5 DSPC liposomes ([2]; DSPC MLVs, internal pH 5): More than 80%
CCC1(O)C(=O)OCc2c1cc1n(c2=O)Cc2cc3cc4c(cc3nc2-1)OCO4 (stereo not drawn) [10,11-methylenedioxycamptothecin] | – | – | – | ~ 0 | > 72 | ~ 0 | > 72 | more than 97% | 3.3 | 28.7 min | 28.7 | little hydrolysis even at 48 hours | degraded at 1 h ([2]; pH 7.4, free in PBS, less than 1 hour, read-out: drug hydrolyzed in less than 1 hour): > 70%; drug stabilized at 5 hours ([2]; sorbitan mono-oleate micelles, 5 hours): 50%
CCC1(O)C(=O)OCc2c1cc1n(c2=O)Cc2cc3cc(O)ccc3nc2-1 (stereo not drawn) [10-hydroxycamptothecin] | 75 | – | – | – | – | – | – | – | 5.4 | – | 23.9 | – | –
CC[C@@]1(O)C(=O)OCc2c1cc1n(c2=O)Cc2cc3ccccc3nc2-1 [camptothecin] | – | 97 | at least 48 hours | ~ 0 | > 72 | ~ 0 | > 72 | more than 97% | 6.8 | 16.6 min | 16.6 | – | lactone ring hydrolysis at raised drug concentration ([2]; 2 mM, lipid to drug ratio 150, DMPC): no evidence of lactone ring hydrolysis was observed; C/L drug DSPC Lip. ([2]; DSPC liposomes, pH 7.4, 37° C.): ~ 3.4
CC[C@@]1(O)C(=O)OCc2c1cc1n(c2=O)Cc2cc3c(CN(C)C)c(O)ccc3nc2-1 [topotecan] | 50 | 93 | – | 3.4 | 1.25 | 0.42 | 1.6 | – | 7.5 | – | 21.1 | some hydrolysis at 1 hour; also recorded: stabilized to a greater degree in DMPG liposomes as compared to DMPC liposomes | reduced ability to bind negatively-charged liposome membranes relative to CMC ([1]; DMPG): 6 -fold; binding preference DMPG over DMPC ([1]; DMPG compared to DMPC): preferentially binds negatively charged DMPG liposomes as compared to DMPC liposomes; also recorded: strong binding preference for the negatively-charged lipid DMPG
